Structure (SMILES)	melting point
Cc1cccc(NC(=O)NCC(=O)N(c2ccccc2)c2ccccc2CC(=O)NC(C)(C)C)c1	216 °C
Cc1ccc(COCc2c(C(C)C)cc(C(C)C)c(C(C)O)c2-c2ccc(F)cc2)cc1 (single isomer, unassigned; (+))	84 to 86 °C
Cn1ccnc1Sc1ccc(Nc2c(C#N)cnc3sccc23)cc1Cl	> 240 °C
CNC(=O)c1cc2ccccc2c(-c2ccc(I)cc2)n1	163 to 164 °C
N#Cc1ccc(-c2cc(-c3ccc(C#N)cc3Cl)on2)cc1	260 to 262 °C
CCOCCNCc1ccc(C(=O)Nc2nc(-c3ccccc3)c(-c3ccc(=O)n(C(C)C)n3)s2)cc1	153 to 154 °C
CCCCN(CCCC)CCCOc1ccc(S(=O)(=O)c2c(C3CCCCC3)cn3ccccc23)cc1	130 to 131 °C
C#CCn1c(=O)sc2cc(F)c(-n3c(=O)cc(C)[nH]c3=O)cc21	> 250 °C
COC(=O)c1cc(OC)c(-n2cccc2)c(OC)c1	145 to 146 °C
Nc1nc(/C(=N/OCC(=O)N2CCCCCC2)C(=O)O)cs1	178 to 179 °C
CN1C(=O)[C@H](NC(=O)CCc2ccco2)N=C(c2ccccc2)c2ccccc21	115 to 118 °C
CNC(=O)/C(=N/OC)c1ccccc1COc1ccccc1C	109 to 112 °C
O=C1c2cccc3cc4ccccc4c(c23)C(=O)N1CCCNCCNCCCN1C(=O)c2cccc3cc4ccccc4c(c23)C1=O	180 °C
CC1(C)NC(=O)CN1C(=O)CN	145 to 148 °C
COc1cn(-c2ccc(-c3ncco3)cc2F)nc(-c2ccnn2-c2ccccc2)c1=O	223 to 225 °C
CCOC(=O)/C=C/c1cn(CC)nc1OCc1ccc(OCc2nc(-c3ccco3)oc2C)c(OC)c1	149 to 150 °C
CCCCc1[nH]c(=O)c(C#N)cc1C(C)=O	195 to 197 °C
CCOC(CCN(C(=O)c1cccs1)c1nc(-c2cc(-c3ccccc3)no2)cs1)OCC	100 to 101 °C
CNS(=O)(=O)NCCNC(=O)[C@@H](C[C@H](O)[C@H](C)NC(=O)OC(C)(C)C)C(C)C	75 to 95 °C
CSc1cc(C(F)(F)F)nn1-c1ccc(NC(=O)c2ccncc2F)cc1	142 to 143 °C
O=C(CCc1ccccc1)N[C@H](Cc1ccc(Oc2ccccc2)cc1)[C@@H](O)c1ccc(F)cc1 (racemic)	108 to 110 °C
COc1cc(NC2CCCC2)n2nc(-c3ccc(F)cc3)c(-c3ccnc(NC4CCCC4)n3)c2c1	167 to 169 °C
C[Si](C)(C)CCCCNC(=O)n1cc(F)c(=O)[nH]c1=O	129 to 132 °C
CCCCCCCCCCCCCCOC(=O)CCCCc1cc(O)c(O)c([N+](=O)[O-])c1	46 to 47 °C
COC(=O)C12C3C4(C(=O)OC)C1C1(C(=O)OC)C2C3(C(=O)OC)C41Cl (stereo not drawn)	178 to 180 °C
Cc1cc(-c2[nH]c3ccc(OCc4ccccc4)cc3c2C)cc(C)c1O	162 °C

Structure (SMILES)	melting point
Fc1ccc(-n2ccc3cc(-c4nnn[nH]4)ccc32)cc1	224 to 225 °C
O=S(=O)(N=C(O)c1ccc(OCCn2ccnc2)cc1)c1ccccc1	250 to 252 °C
COc1cc(C(=O)NS(=O)(=O)c2ccccc2C)ccc1Cc1cn(C)c2ccc(CC(C)C(=O)NCC3CCCC3)cc12 (stereo not drawn)	119 to 126 °C
CC(=NO)C12CCCC(C1)C1CCC2C1 (stereo not drawn)	157 to 158 °C
C#CCN(Cc1ccccc1)S(=O)(=O)c1ccc([N+](=O)[O-])cc1[N+](=O)[O-]	91 to 92 °C
O=C(O)COc1cccc2c1CCC(COC(=O)N(c1ccccc1)c1ccccc1)C2 (stereo not drawn)	137 to 142 °C
Cc1ccccc1-c1ccc(C(=O)N2Cc3ccc(C(=O)C(Cl)(Cl)Cl)n3Cc3ccccc32)cc1C	212 to 214 °C
CC1(C)CC(=O)c2c(-c3cncs3)cn(-c3ccccn3)c2C1	167 to 169 °C
CCCCc1nn2ccccc2c1Cc1ccc(Br)cc1	< 50 °C
COc1cc(COc2nn(-c3ccccc3)cc2C#N)ccc1OCc1nc(-c2ccccc2)oc1C	174 to 175 °C
C=CCc1cc(CC(=O)OC)ccc1OCc1ccc2ccccc2n1	71 °C
Cn1cc(C2=C(c3c4n(c5ccccc35)CCC(CO)C4)C(=O)NC2=O)c2ccccc21 (stereo not drawn)	262 to 263 °C
CCC(NS(=O)(=O)c1ccc(Cl)cc1)c1ccccc1 (stereo not drawn)	140 to 142 °C
C=CCN1C(=O)COc2cc(F)c(-n3c(=O)cc(CC)[nH]c3=O)cc21	197 to 200 °C
CCCn1nc2c(N)nc3ccccc3c2c1CCCCS(C)(=O)=O	155 to 157 °C
O=c1cc(CO)oc(CO)c1O	160 to 161 °C
CC(=O)n1nc(-c2c(C)cc(C)c([N+](=O)[O-])c2C)n2nc(C(C)(C)C)c(Cl)c12	188 to 191 °C
O=C(CN1C(=O)c2ccccc2C1=O)NNC(=O)c1ncn2c1[C@@H]1CCCN1C(=O)c1sccc1-2	> 260 °C
CCCCCCCCCCCCCCCCCC1=NCCO1	52 to 53 °C
O=C(Nc1ccc(F)cc1F)N(Cc1ccccc1)CC1(c2ccccc2)CCCC1	119 to 122 °C
O=c1oc2c3ccccc3ccc2c2occc12	198 to 200 °C
CCCCCCCCCCCCCCOCc1ccc(C(C)=O)o1	61 to 62 °C
O=C(Nc1ccc2nc(CN3CCCCC3)ccc2c1)c1ccc(-c2ccc(F)cc2)cc1	202 to 204 °C
COc1ccsc1S(=O)(=O)Nc1nc2c(OC)cnc(OC)n2n1	227 to 228 °C
O=C(O)CCC/C=C\CN1C(=O)c2ccccc2C1=O	86 to 88 °C

Further lines, results first:

melting point	Structure (SMILES)
179 to 184 °C	NC(=O)N1CC(Oc2ccc(Cl)c(Cl)c2)C1
195 to 197 °C	CC(=O)Nc1cc(C(=O)O)ccc1C(F)(F)F
219 to 221 °C	Cc1nc2c(c(=O)[nH]1)-c1ccc(Cl)cc1C(c1ccccc1)=[N+]([O-])C2
169 to 170 °C	Cc1ccc(-n2nc(C(N)=O)nc2-c2ccccc2)cc1C
138 °C	Nc1cccc(C(=O)NS(=O)(=O)c2ccccc2)c1
64 °C	CCCc1nsc(Oc2cccc(NC(=O)OC(C)C)c2)n1
145 to 150 °C	COn1c(C#N)c(Br)c(Br)c1-c1ccc(Cl)c(Cl)c1
135 to 137 °C	CN(C)C(=O)C(CCO)C1CCc2[nH]c3ccccc3c21 (stereo not drawn)
100 to 101 °C	COc1ccc2ccc3c(c2c1)CCC(=O)O3
107 to 110 °C	Nc1ccccc1C(=O)NCCCn1ccnc1
99 to 101 °C	Cc1cc(Oc2c(Cl)cc(C(F)(F)F)cc2Cl)nn1C(=O)NCCN1CCOCC1
217 to 218 °C	CC(=O)Nc1ccc2c(c1)CCN2NC(C)=O
121 °C	C=CCOC(=O)c1cccc2c1N=C(c1ccccc1Cl)CC2=O
110 °C	COC(=O)c1cccc(NC(=O)N(C)C)c1
116 to 117 °C	COc1ccc(CCCc2nnc(-c3ccc4occc4c3)o2)cc1
78.5 to 80 °C	CC(C)(SCC(=O)O)c1ccc2c(c1)OCO2
150 to 151 °C	CC(=O)OC(C)(C)c1nnc(-c2ccc3ncn(-c4ccc(OC(F)(F)F)cc4)c3c2)o1
194 to 196 °C	Nc1ccccc1NC(=O)CCN1CCN(c2cccc(C(F)(F)F)c2)CC1
74 to 76 °C	CC(Oc1ccc(-c2cccc(C(N)=O)c2)cc1)C(O)CCc1cccnc1 (stereo not drawn)
163 to 164 °C	COC(=O)c1[nH]c2c(C)ccc(C)c2c1S(C)(=O)=O
81 to 84 °C	CCOC(=O)C1=C(COCCNC(=O)c2cccnc2)NC(C)=C(C(=O)OC)C1c1ccccc1Cl (stereo not drawn)
206 to 208 °C	COc1cc(OC)c2c(=O)[nH]c(-c3ccc(CN4CCOCC4)cc3)nc2c1
224 to 225 °C	CN1C[C@@H]2C[C@H]1CN2C(=O)N1CCC(c2[nH]nc3c2C(=O)c2c(NC(=O)NN4CCOCC4)cccc2-3)CC1
178 to 181 °C	Cn1c([N+](=O)[O-])cnc1-c1nc(Cl)c2ccccc2n1

melting point	Structure (SMILES)
232 to 233 °C	CCOC(=O)C1=C(C)NC(C)=C(C(=O)OCC)C1c1ccccc1S(C)=O (stereo not drawn)
136 °C	ClCn1nnc2ccccc21
235 °C	O=C(Nc1cc2nc(-c3ccc(C(=O)C4CCCCC4)cc3)[nH]c2cn1)C1CCCCC1
104 to 106 °C	CN(C)OC(=O)c1c(O)cccc1Cl
> 250 °C	CC1CCN(c2ccc(-c3nc(C(=O)Nc4nccs4)c(-c4ccc(Cl)cc4)[nH]3)cc2)CC1
271 to 272 °C	CCOC(=O)C1=C(C)NC2=C(C(=O)CCC2)C1c1nccn1C (stereo not drawn)
120 to 135 °C	Clc1ccc(CN2CCN=C2C(Cn2ccnc2)c2ccccc2)c(Cl)c1 (stereo not drawn)
86 to 87 °C	O=[N+]([O-])c1ccc(OCCOc2ccccc2)cc1
158 to 160 °C	Clc1ccc(C2CC(n3ccnc3)c3ccccc3N2)cc1 (stereo not drawn)
114 °C	CNC(Cc1ccc(Cl)nc1)=C(N)C(=O)C(F)(F)F
128 to 130 °C	N#Cc1c2c(n(Cc3ccccc3)c1N)CCCC2
178 to 184 °C	CS(=O)(=O)c1cccc(C(=O)Nc2ccc(-n3nc(C(F)(F)F)cc3C3CC3)cc2)c1
292 to 294 °C	CCCCn1c(=O)c2c(NC)n[nH]c2n(Cc2ccc(OC)cc2)c1=O
139 to 141 °C	CN(C)C(=NCCN1CCC(C(=O)c2ccc(F)cc2)CC1)NC#N
162 °C	C=COC(=O)N1CC2C(=O)C=CC(c3ccccc3)(c3ccccc3)C2C1 (stereo not drawn)
187 to 188 °C	CCCc1ccnc2c(=O)[nH]c(-c3cc(S(=O)(=O)N4CCN(CCO)CC4)ccc3OCC)nc12
107 to 108 °C	O=C1CCCC(c2ccc(Cl)cc2)N1c1cccnc1 (stereo not drawn)
125 °C	CNC(=O)CCC(=O)c1c(O)cccc1OC
273 to 275 °C	O=C1CCC2(CCC(=O)c3cc([N+](=O)[O-])ccc32)C(=O)N1 (stereo not drawn)
91 to 92 °C	COC(=O)[C@H](C)NC(=O)CCCN(C(=O)c1ccc(Cl)cc1)c1c(C)cccc1C
207 to 208 °C	CCOC(=O)c1ccc(-c2nc(O)c(C)s2)cc1
135 to 140 °C	CCOC(=O)c1cc(C(=O)c2ccccc2Cl)c(-n2c(C)nnc2CNC(=O)c2cc3ccccc3[nH]2)s1
131 to 133 °C	N#Cc1cnc2cc(C#CCCCN3CCOCC3)ccc2c1Nc1ccc(Cl)cc1Cl

From a melting point compilation (Tetko et al.; mined from patent text by program, amines drawn as free bases though some values may be those of a salt)
